These results are taken from patent US7589173B2, “Methods for diagnosing cancer and decreasing metastasis by cancer cells” (The Scripps Research Institute, priority 2003, dated 2009).

This assay concerns SIMA135 tyrosine phosphorylation. The conditions noted are these: PP2 50 μM, 30 minutes at 37° C, serum free DMEM.

Description: Cell lysates, serum free conditioned media and immunoprecipitated proteins were separated by electrophoresis through 8% SDS-polyacrylamide gels then transferred to nitrocellulose membranes (Millipore). […] Following extensive washing membranes were incubated for 2 hr at room temperature with goat anti-mouse IgG (0.16 μg/ml, Pierce, Rockford, Il) and immunoreactive bands detected by enhanced chemiluminescence (Pierce).
For analysis of the basal level of tyrosine phosphorylation of SIMA135, subconfluent cultures of HEp3 and HeLa (as negative control) cells were incubated at 37° C. for 30 min with serum free DMEM containing 50 mM NaF and 1 mM Na3VO4 then washed with ice cold PBS. For inhibition of Src kinase family phosphorylation, HEp3 cells were cultured in serum free DMEM without NaF and Na3VO4 for 30 minutes at 37° C. with PP2 (50 μM). Cells were then lysed in ice cold buffer containing 50 mM Tris (pH 7.4), 150 mM NaCl, 1% Triton X-100, 1 mM phenylmethylsulfonyl fluoride, 1 mM benzamidine, 25 μg/ml aprotinin, 25 μg/ml leupeptin, 50 mM NaF and 1 mM Na3VO4. Insoluble material was removed by centrifugation at 14000 rpm for 10 min. […] Cells lysates were collected as described above.

Turning to `CC(C)(C)n1nc(-c2ccc(Cl)cc2)c2c(N)ncnc21` [PP2], the “reduction in the level of SIMA135 tyrosine phosphorylation compared to untreated HEp3 cells” value is about 75%.
